The text below walks through data of US8389739B1, “Modulators of retinoid-related orphan receptor gamma” (Orphagen Pharmaceuticals, priority 2006, dated 2013).

As a reminder, the EC50 is the concentration at which the effect is half-maximal. The Emax is the maximal effect, on the per cent scale that the assay sets.

Type in all cases: cell-based
In experiment [1] the target is T1, hFXR (farnesoid X receptor) (Homo sapiens, UniProt Q96RI1).
T1 construct: 192-473; expressed in transfected cells; host or cells: CHO cells, transient transfection
T1 sequence (Q96RI1 192-472 isoform Q96RI1-2): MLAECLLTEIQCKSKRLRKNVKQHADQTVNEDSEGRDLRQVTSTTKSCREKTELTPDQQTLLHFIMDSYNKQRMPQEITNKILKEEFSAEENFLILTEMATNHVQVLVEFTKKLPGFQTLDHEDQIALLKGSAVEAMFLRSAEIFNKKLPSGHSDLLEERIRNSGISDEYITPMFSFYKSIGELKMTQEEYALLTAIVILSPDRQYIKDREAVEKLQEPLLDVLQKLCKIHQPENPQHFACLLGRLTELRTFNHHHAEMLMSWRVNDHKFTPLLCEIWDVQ
Description: Crossreactive receptor transcriptional assay (Gal4 hybrid). As for the experimental part:
(§1) A firefly luciferase reporter gene for Gal4 DBD hybrid receptors, such as Gal4-RORγ, contains five copies of the Gal4 17-mer response element in its promoter and the coding sequence for firefly luciferase (pG5-luc, Promega). CHO (Chinese Hamster Ovary) cells were cultured in Ham's F12 medium supplemented with 10% fetal calf serum (Gemini Biologicals), 10 μg/ml penicillin and streptomycin, and were maintained in a humidified 37° C. incubator (Thermo Electron, Steri-Cycle) with 5% CO2. 24 hours before transfection, cells were plated in T175 flasks (5×10^6 cells/flask) or T75 flasks (1.7×10^6 cells/flask). Transient transfection of CHO cells was performed using TransIT-CHO reagents (Minis, Madison, Wis.) with a mixing ratio of 2:6:1 between plasmid DNA (in μg), TransIT-CHO (in μl) and CHO-mojo (in μl).
(§2) Plates are maintained at 37° C. in a humidified atmosphere with 7% CO2 overnight. Four (4) hours after cell seeding, compounds dissolved in DMSO at 10 mM were added to cells at final concentrations of 20 micromolar (μM) to 20 nanomolar (nM) in 0.2% DMSO in triplicate plates. Approximately 40 hours later, cytotoxicity in the assay well was characterized by addition of the dye resazurin (O'Brien, Wilson et al. 2000) to a final concentration of 3 μM. […] Percent viability was determined as 2 hour fluorescence, minus background at t=0 hours, normalized to DMSO controls. For detection of luciferase activity, media was removed from plates after the measurement of resazurin conversion, and SteadyLite luciferase reagent (Perkin-Elmer) was added (30 μl/well). Luminescence is detected with a Victor 2-V plate reader (Perkin-Elmer) and normalized to luciferase activity of DMSO control wells alone.

A further experiment concerns the target T2, hPPARα (Homo sapiens, UniProt Q07869).
T2 construct: 166-468; expressed in transfected cells; host or cells: CHO cells, transient transfection
T2 sequence (Q07869 166-468): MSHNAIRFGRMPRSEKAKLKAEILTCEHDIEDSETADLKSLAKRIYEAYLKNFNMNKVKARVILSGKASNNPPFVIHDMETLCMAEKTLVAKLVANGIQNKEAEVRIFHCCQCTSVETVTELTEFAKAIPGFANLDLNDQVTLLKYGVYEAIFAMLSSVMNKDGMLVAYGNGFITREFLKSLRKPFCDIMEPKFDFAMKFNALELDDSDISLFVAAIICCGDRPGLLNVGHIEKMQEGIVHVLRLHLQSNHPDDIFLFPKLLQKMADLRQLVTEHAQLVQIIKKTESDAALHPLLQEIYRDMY
The experiment is described as above. How it is done:
as §1, §2

For experiment [2], the target named is T3, hRARα (retinoic acid receptor alpha) (Homo sapiens, UniProt P10276).
T3 construct: 156-462; expressed in transfected cells; host or cells: CHO cells, transient transfection
T3 sequence (P10276 156-462): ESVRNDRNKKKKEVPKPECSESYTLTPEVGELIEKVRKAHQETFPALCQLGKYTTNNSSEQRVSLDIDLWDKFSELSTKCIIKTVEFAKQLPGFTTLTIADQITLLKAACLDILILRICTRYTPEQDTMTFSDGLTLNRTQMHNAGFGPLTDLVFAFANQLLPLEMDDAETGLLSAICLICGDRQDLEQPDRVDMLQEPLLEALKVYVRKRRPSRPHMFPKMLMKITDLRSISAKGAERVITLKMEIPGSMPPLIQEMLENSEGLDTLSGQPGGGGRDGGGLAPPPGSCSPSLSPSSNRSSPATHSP
Described as above. How it is done: as §1, §2

The target in experiment [3] is T4, hRXRα (retinoid X receptor alpha) (Homo sapiens, UniProt P19793).
T4 construct: 203-462; expressed in transfected cells; host or cells: CHO cells, transient transfection
T4 sequence (P19793 203-462): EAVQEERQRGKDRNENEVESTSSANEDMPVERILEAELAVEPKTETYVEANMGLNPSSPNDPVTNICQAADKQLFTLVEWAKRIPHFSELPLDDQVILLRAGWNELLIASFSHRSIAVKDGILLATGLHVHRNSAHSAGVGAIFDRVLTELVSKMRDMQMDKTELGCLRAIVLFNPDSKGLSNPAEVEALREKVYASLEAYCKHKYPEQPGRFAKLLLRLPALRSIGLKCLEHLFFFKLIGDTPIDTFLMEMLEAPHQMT
The experiment is described as above. How it is done:
as §1, §2

In experiment [4] the target is T5, mLXRα (Liver X receptor alpha) (Mus musculus, UniProt Q9Z0Y9).
T5 construct: 172-455; expressed in transfected cells; host or cells: CHO cells, transient transfection
T5 sequence (Q9Z0Y9 172-445 limits assumed): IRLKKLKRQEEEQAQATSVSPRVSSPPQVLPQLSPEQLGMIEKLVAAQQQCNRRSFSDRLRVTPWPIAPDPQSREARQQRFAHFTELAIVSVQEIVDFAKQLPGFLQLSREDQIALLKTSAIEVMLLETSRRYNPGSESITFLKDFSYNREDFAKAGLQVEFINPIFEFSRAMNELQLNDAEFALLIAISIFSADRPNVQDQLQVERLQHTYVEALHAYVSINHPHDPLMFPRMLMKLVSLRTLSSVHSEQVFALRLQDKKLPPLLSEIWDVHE
Description: Transcriptional assay of LXRα (Gal4-LXRα hybrid). As for the experimental part:
as §1, §2
A transcriptional assay for LXRα, using a Gal4-LXRα hybrid, was implemented in order to compare RORγ ligand potencies. In addition to LXRα, transcriptional assays for a number of other major nuclear receptors were developed.

Where [5] appears, read: Table 6, read-out: Potency (EC50) at hFXR.
[6] abbreviates: Table 6, RORγ ligands: no significant activity at 20 μM, read-out: Potency (EC50) at hPPARα.
Setting [7] is: Table 6, read-out: Potency (EC50) at hRARα.
[8] abbreviates: Table 6, read-out: Potency (EC50) at hRXRα.
[9] abbreviates: Table 6, read-out: Potency (EC50) at mLXRα.

The structures appear in SMILES notation. Read-outs that look alike come from different tables or passages of the source. Some results are limits rather than exact numbers.

Take `CC(=O)O[C@H]1CC[C@@]2(C)C(CC[C@]3(C)C2C(=O)C=C2C4[C@@H](C)[C@H](C)CC[C@]4(C(=O)O)CC[C@]23C)C1(C)C` (stereo in doubt) [OR-13571, 10-Acetoxy-1,2,6a,6b,9,9,12a-heptamethyl-13-oxo-1,3,4,5,6,6a,6b,7,8,8a,9,10,11,12,12a,12b,13,14b-octadecahydro-2H-picene-4a-carboxylic acid]: the EC50 (in experiment [1] (setting [5]); at hPPARα (setting [6]); in experiment [2] (setting [7]); in experiment [3] (setting [8]); in experiment [4] (setting [9])) was above 10 µM in each case.

For the molecule `O=S(=O)(c1ccccc1)N(CC(F)(F)F)c1ccc(C(O)(C(F)(F)F)C(F)(F)F)cc1` [Compound T0901317, N-(2,2,2-Trifluoro-ethyl)-N-[4-(2,2,2-trifluoro-1-hydroxy-1-trifluoromethyl-ethyl)-phenyl]-benzenesulfonamide, reference compound], the EC50 is above 10 µM on hPPARα (setting [6]); above 10 µM in experiment [2] (setting [7]); above 10 µM in experiment [3] (setting [8]); 0.1 to 1 µM in experiment [4] (setting [9]); 0.14 µM in experiment [4] (Table 7, no unit printed for this column (b114 gives 1.5 μM for OR-1050), read-out: Transcriptional Assay of LXRα EC50). In experiment [4], this molecule registered a maximal response (Emax) of 100%. Moreover, the “Efficacy at mLXRα” value in experiment [4] (activity of standard ligand at 20 μM) is reported as 120X.

In the case of `C[C@@H]1CC[C@@]2(OC1)O[C@H]1C[C@H]3[C@@H]4CC[C@H]5C[C@@H](O)CC[C@]5(C)[C@H]4C[C@@H](O)[C@]3(C)[C@H]1[C@@H]2C` [OR-885, 5α,20α, 22α, 25D-SPIROSTAN-3β, 12β-DIOL], the EC50 (in experiment [1]; at hPPARα; in experiment [2]; in experiment [3]; in experiment [4]) was above 10 µM in each case.

On to `CCN(c1ccc(C(O)(C(F)(F)F)C(F)(F)F)cc1)S(=O)(=O)c1ccc([N+](=O)[O-])cc1` [OR-1050, N-Ethyl-4-nitro-N-[4-(2,2,2-trifluoro-1-hydroxy-1-trifluoromethyl-ethyl)-phenyl]-benzenesulfonamide], for which the EC50 in experiment [1] (setting [5]) is above 10 µM; at hPPARα (setting [6]) it was above 10 µM; in experiment [2] (setting [7]) it was above 10 µM; in experiment [3] (setting [8]), above 10 µM; in experiment [4] (setting [9]) it was 1 to 10 µM; in experiment [4] (read-out: EC50 at LXRα in transcriptional assays) it was 1.5 µM. The Emax in experiment [4] was above 80%. For the same molecule, in experiment [4], the “potency in repression of RORγ transcription relative to induction of LXR transcription” value is reported as “approximately 5 fold”. For the same molecule, the “specificity for RORγ versus LXRα” value in experiment [4] (comparison of transcriptional assays for RORγ and LXRα (Table 7)) is “more specific for RORγ than LXRα”.

For `COc1c(C=NNc2nc(N3CCCCC3)nc(N3CCCCC3)n2)cccc1[N+](=O)[O-]` [OR-2161, N-(4,6-Di-piperidin-1-yl-[1,3,5]triazin-2-yl)-N′-(2-methoxy-3-nitro-benzylidene)-hydrazine], the EC50 (in experiment [1] (setting [5]); at hPPARα (setting [6]); in experiment [2] (setting [7]); in experiment [3] (setting [8]); in experiment [4] (setting [9])) was above 10 µM throughout.

Consider `COC(C)CCC(C)C1CCC2C3CC(O)C4CC(O)CCC4(C)C3CCC12C` (centres unmarked) [OR-12872, 17-(4-Methoxy-1-methyl-pentyl)-10,13-dimethyl-hexadecahydro-cyclopenta[a]phenanthrene-3,6-diol], for which the EC50 (in experiment [1] (setting [5]); at hPPARα (setting [6]); in experiment [2] (setting [7]); in experiment [3] (setting [8]); in experiment [4] (setting [9])) was above 10 µM each time.

In the case of `CCn1c(CNc2ccc(Cl)cc2)nnc1SCC(=O)Nc1cccc2ccccc12` [OR-133008, 2-{5-[(4-Chloro-phenylamino)-methyl]-4-ethyl-4H-[1,2,4]triazol-3-ylsulfanyl}-N-naphthalen-1-yl-acetamide], the EC50 (in experiment [1] (setting [5]); at hPPARα (setting [6]); in experiment [2] (setting [7]); in experiment [3] (setting [8]); in experiment [4] (setting [9])) was above 10 µM in each case.
